Measured values from patent US6969711B2, “Cyclic diamine compounds and medicine containing the same” (Kowa Company, Ltd., priority 1997, dated 2005).
Values after ≈ are worked out from the molar mass of the structure shown.

Columns and labels:
[1] = test system: J774 cells; assay: ACAT inhibitory action (anti-foaming action) in J774 cells; format: cell-based; conditions: Mus musculus, 10 μg/ml 25-OH cholesterol, 18 hours, cholesterol ester per protein, read-out: Enzyme (J774) IC50
[2] = Disintegration test (solubility in liquid No. 1 of the Japanese Pharmacopoeia); format: physicochemical; conditions: simulated gastric fluid, thermodynamic from solid; liquid No. 1 for disintegration test (Japanese Pharmacopoeia), pH 1.2, shaken two hours, room temperature, 0.45 μm filtrate
From the text: Compounds of the present invention and the compounds mentioned in the previously-filed Japanese Patent Applications Hei-09/88660 (hereinafter, referred to as “A”) and Hei-09/90146 (hereinafter, referred to as “B”) as controls were suspended in a liquid No. 1 for disintegration test regulated by the Japanese Pharmacopoeia, shaken for two hours, allowed to stand at room temperature for one hour and filtered through a membrane filter of 0.45 μm. Absorbance of a mixture of this filtrate with methanol in the same amounts was measured and, from the previously-determined ε1% 1cm values, solubility was calculated.

[3] = test system: HepG2 cells; assay: ACAT inhibitory action (anti-foaming action) in HepG2 cells; format: cell-based; conditions: Homo sapiens, 10 μg/ml 25-OH cholesterol, 18 hours, cholesterol ester per protein, read-out: Enzyme (HepG2) IC50

Row | Structure (SMILES) | solubility at 2 h [2] [µg/mL] | melting point [°C] | other results
1 | CCCCCCCCCN(CC(C)(C)C)C(=O)N[C@H]1CCCC[C@@H]1OC(=O)CCNC(=O)C1OC(C)(C)OCC1(C)C (some centres unmarked) [Control 3, reference compound] |  |  | IC50 [1]: 320 nM
2 | CC(C)c1cccc(C(C)C)c1NC(=O)CCCCCSc1nc2ccccc2o1 [Control 6, 6-(Benzoxazol-2-ylthio)-N-(2,6-diisopropylphenyl)hexanamide, reference compound] | 0.05 (≈ 0.000118 mM) |  | 
3 | CC(C)c1cccc(C(C)C)c1NC(=O)CCCCCSc1nc2cc(CN(C)C)ccc2o1 [Control 7, 6-[5-(N,N-Dimethylaminomethyl)-benzoxazol-2-ylthio]-N-(2,6-diisopropylphenyl)hexanamide, reference compound] | 360 to 400 (≈ 0.747 to 0.83 mM) |  | 
4 | CC(C)c1cccc(C(C)C)c1NC(=O)CCCCCSc1nc2cc(N(C)C)ccc2o1 [Control 8, 6-[5-(N,N-Dimethylamino)-benzoxazol-2-ylthio]-N-(2,6-diisopropylphenyl)hexanamide, reference compound] | 170 to 180 (≈ 0.363 to 0.385 mM) |  | 
5 | CC(C)c1cccc(C(C)C)c1NC(=O)CN1CCN(CCSc2nc3ccccc3o2)CC1 [Example 1, 2-[4-[2-(benzoxazol-2-ylthio)ethyl]-piperazin-1-yl]-N-(2,6-diisopropylphenyl)acetamide] | 14000 (≈ 29.1 mM) |  | 
6 | COC(=O)c1cccc2oc(SCCN3CCN(CC(=O)Nc4c(C(C)C)cccc4C(C)C)CC3)nc12 [Example 5, 2-[4-[2-(4-methoxycarbonylbenzoxazol-2-ylthio)ethyl]-piperazin-1-yl]-N-(2,6-diisopropylphenyl)acetamide] |  | 173 to 175 | IC50 [1]: 100 nM; IC50 [3]: 1450 nM
7 | CC(C)c1cccc(C(C)C)c1NC(=O)CN1CCN(CCSc2nc3ncccc3o2)CC1 [Example 6, 2-[4-[2-(oxazolo[4,5-b]pyridine-2-ylthio)ethyl]-piperazin-1-yl]-N-(2,6-diisopropylphenyl)acetamide] | 35000 (≈ 72.7 mM) | 153 to 154 | 
8 | COC(=O)c1cccc2nc(SCCCN3CCN(CC(=O)Nc4c(C(C)C)cccc4C(C)C)CC3)oc12 [Example 10, 2-[4-[3-(7-methoxycarbonylbenzoxazol-2-ylthio)propyl]piperazin-1-yl]-N-(2,6-diisopropylphenyl)acetamide] |  | 135 to 136 | IC50 [1]: 270 nM; IC50 [3]: 4900 nM
9 | CC(C)c1cccc(C(C)C)c1NC(=O)CN1CCCN(CCCSc2nc3ccccc3o2)CC1 [Example 13, 2-[4-[3-(benzoxazol-2-ylthio)propyl]-homopiperazin-1-yl]-N-(2,6-diisopropylphenyl)acetamide] | 7400 (≈ 14.5 mM) | 109 to 111 | 
10 | CSc1cc(C)nc(SC)c1NC(=O)CN1CCN(CCSc2nc3ccccc3o2)CC1 [Example 24, 2-[4-[2-(benzoxazol-2-ylthio)ethyl]piperazin-1-yl]-N-(2,4-bis(methylthio)-6-methyl-3-pyridyl)acetamide] | 17000 (≈ 33.7 mM) | 140 to 141 | 
11 | CC(C)c1cc(O)cc(C(C)C)c1NC(=O)CN1CCN(CCCSc2nc3ccccc3o2)CC1 [Example 118, 2-[4-[3-(benzoxazol-2-ylthio)propyl]piperazin-1-yl]-N-(2,6-diisopropyl-4-hydroxyphenyl)acetamide] |  | 201 to 203 | 
12 | COc1cc(C(C)C)c(NC(=O)CN2CCN(CCCSc3nc4ccccc4o3)CC2)c(C(C)C)c1 [Example 119, 2-[4-[3-(benzoxazol-2-ylthio)propyl]piperazin-1-yl]-N-(2,6-diisopropyl-4-methoxyphenyl)acetamide] |  | 129 to 130 | 
13 | CCOCCOc1cc(C(C)C)c(NC(=O)CN2CCN(CCCSc3nc4ccccc4o3)CC2)c(C(C)C)c1 [Example 120, 2-[4-[3-(benzoxazol-2-ylthio)propyl]piperazin-1-yl]-N-[2,6-diisopropyl-4-(2-ethoxyethyloxy)phenyl]acetamide] |  | 115 to 117 | 
14 | CC(C)c1cccc(C(C)C)c1NC(=O)CN1CCN(CCSc2nc3cccc([S+](C)[O-])c3o2)CC1 (centres unmarked) [Example 121, 2-[4-[2-(7-methanesulfinylbenzoxazol-2-ylthio)ethyl]piperazin-1-yl]-N-(2,6-diisopropylphenyl)acetamide] |  | 119 to 120 | 
15 | Cc1ccc(C(C)C)c2oc(SCCN3CCN(CC(=O)Nc4c(C(C)C)cccc4C(C)C)CC3)nc12 [Example 122, 2-[4-[2-(7-isopropyl-4-methylbenzoxazol-2-ylthio)ethyl]piperazin-1-yl]-N-(2,6-diisopropylphenyl)acetamide] |  | 133 to 134 | 
16 | CC(C)c1ccc(O)c(C(C)C)c1NC(=O)CN1CCN(CCSc2nc3cccc(C(F)(F)F)c3o2)CC1 [Example 130, 2-[4-[2-(7-trifluoromethylbenzoxazol-2-ylthio)ethyl]piperazin-1-yl]-N-(2,6-diisopropyl-3-hydroxyphenyl)acetamide] |  | 82 to 84 | 
17 | CC(C)c1cc(O[C@@H]2O[C@H](CO)[C@@H](O)[C@H](O)[C@H]2O)cc(C(C)C)c1NC(=O)CN1CCN(CCSc2nc3cccc(C(F)(F)F)c3o2)CC1 [Example 134, 2-[4-[2-(7-trifluoromethylbenzoxazol-2-ylthio)ethyl]piperazin-1-yl]-N-[2,6-diisopropyl-4-(β-D-glucopyranosyl)oxyphenyl]acetamide] |  | 130 to 133 | 
18 | CCCCCCCN(CCN1CCN(CCSc2nc3ncccc3o2)CC1)C(=O)Nc1c(C(C)C)cc(O)cc1C(C)C [Example 139, N′-(2,6-diisopropyl-4-hydroxyphenyl)-N-heptyl-N-[2-[4-[2-(oxazolo[4,5-b]pyridin-2-ylthio)ethyl]piperazin-1-yl]ethyl]urea] |  | 100 to 102 | 
19 | CC(C)c1cc(CO)cc(C(C)C)c1NC(=O)CN1CCN(CCSc2nc3cccc(C(F)(F)F)c3o2)CC1 [Example 140, 2-[4-[2-(7-trifluoromethylbenzoxazol-2-ylthio)ethyl]piperazin-1-yl]-N-[2,6-diisopropyl-4-hydroxymethylphenyl]acetamide] |  | 146 to 148 | 
20 | CC(C)c1cccc(C(C)C)c1NC(=O)CN1CCN(CCOc2nc3ccccc3[nH]2)CC1 [Example 154, 2-[4-[2-(benzimidazol-2-yloxy)ethyl]piperazin-1-yl]-N-(2,6-diisopropylphenyl)acetamide] |  | 205 to 206 | 
21 | CC(C)c1ccc(F)c(C(C)C)c1NC(=O)CN1CCN(CCSc2nc3ccccc3o2)CC1 [Example 155, 2-[4-[2-(benzoxazol-2-ylthio)ethyl]piperazin-1-yl]-N-(2,6-diisopropyl-3-fluorophenyl)acetamide] |  | 142 to 144 | 
22 | CC(C)c1cc(O)cc(C(C)C)c1NC(=O)CN1CCN(CCSc2nc3ccccc3[nH]2)CC1 [Example 156, 2-[4-[2-(benzimidazol-2-ylthio)ethyl]piperazin-1-yl]-N-(2,6-diisopropyl-4-hydroxyphenyl)acetamide] |  | 241 to 242 | 
